In data set [1] the target is T1, Voltage-dependent N-type calcium channel subunit alpha-1B (Homo sapiens, UniProt Q00975). The experiment in a line: Inhibition of human N type calcium channel Cav2.2 endogenously expressed in SH-SY5Y cells assessed as calcium influx by FRIPR assay. Format: cell-based.
Data set [2] deals with Voltage-dependent T-type calcium channel subunit alpha-1H (Homo sapiens, UniProt O95180). The data set is described as follows: Inhibition of human T type calcium channel Cav3.2 expressed in HEK-293T cells assessed as calcium influx by FRIPR assay. The data set is classed as cell-based.
Chain of Voltage-dependent T-type calcium channel subunit alpha-1H (O95180 whole entry): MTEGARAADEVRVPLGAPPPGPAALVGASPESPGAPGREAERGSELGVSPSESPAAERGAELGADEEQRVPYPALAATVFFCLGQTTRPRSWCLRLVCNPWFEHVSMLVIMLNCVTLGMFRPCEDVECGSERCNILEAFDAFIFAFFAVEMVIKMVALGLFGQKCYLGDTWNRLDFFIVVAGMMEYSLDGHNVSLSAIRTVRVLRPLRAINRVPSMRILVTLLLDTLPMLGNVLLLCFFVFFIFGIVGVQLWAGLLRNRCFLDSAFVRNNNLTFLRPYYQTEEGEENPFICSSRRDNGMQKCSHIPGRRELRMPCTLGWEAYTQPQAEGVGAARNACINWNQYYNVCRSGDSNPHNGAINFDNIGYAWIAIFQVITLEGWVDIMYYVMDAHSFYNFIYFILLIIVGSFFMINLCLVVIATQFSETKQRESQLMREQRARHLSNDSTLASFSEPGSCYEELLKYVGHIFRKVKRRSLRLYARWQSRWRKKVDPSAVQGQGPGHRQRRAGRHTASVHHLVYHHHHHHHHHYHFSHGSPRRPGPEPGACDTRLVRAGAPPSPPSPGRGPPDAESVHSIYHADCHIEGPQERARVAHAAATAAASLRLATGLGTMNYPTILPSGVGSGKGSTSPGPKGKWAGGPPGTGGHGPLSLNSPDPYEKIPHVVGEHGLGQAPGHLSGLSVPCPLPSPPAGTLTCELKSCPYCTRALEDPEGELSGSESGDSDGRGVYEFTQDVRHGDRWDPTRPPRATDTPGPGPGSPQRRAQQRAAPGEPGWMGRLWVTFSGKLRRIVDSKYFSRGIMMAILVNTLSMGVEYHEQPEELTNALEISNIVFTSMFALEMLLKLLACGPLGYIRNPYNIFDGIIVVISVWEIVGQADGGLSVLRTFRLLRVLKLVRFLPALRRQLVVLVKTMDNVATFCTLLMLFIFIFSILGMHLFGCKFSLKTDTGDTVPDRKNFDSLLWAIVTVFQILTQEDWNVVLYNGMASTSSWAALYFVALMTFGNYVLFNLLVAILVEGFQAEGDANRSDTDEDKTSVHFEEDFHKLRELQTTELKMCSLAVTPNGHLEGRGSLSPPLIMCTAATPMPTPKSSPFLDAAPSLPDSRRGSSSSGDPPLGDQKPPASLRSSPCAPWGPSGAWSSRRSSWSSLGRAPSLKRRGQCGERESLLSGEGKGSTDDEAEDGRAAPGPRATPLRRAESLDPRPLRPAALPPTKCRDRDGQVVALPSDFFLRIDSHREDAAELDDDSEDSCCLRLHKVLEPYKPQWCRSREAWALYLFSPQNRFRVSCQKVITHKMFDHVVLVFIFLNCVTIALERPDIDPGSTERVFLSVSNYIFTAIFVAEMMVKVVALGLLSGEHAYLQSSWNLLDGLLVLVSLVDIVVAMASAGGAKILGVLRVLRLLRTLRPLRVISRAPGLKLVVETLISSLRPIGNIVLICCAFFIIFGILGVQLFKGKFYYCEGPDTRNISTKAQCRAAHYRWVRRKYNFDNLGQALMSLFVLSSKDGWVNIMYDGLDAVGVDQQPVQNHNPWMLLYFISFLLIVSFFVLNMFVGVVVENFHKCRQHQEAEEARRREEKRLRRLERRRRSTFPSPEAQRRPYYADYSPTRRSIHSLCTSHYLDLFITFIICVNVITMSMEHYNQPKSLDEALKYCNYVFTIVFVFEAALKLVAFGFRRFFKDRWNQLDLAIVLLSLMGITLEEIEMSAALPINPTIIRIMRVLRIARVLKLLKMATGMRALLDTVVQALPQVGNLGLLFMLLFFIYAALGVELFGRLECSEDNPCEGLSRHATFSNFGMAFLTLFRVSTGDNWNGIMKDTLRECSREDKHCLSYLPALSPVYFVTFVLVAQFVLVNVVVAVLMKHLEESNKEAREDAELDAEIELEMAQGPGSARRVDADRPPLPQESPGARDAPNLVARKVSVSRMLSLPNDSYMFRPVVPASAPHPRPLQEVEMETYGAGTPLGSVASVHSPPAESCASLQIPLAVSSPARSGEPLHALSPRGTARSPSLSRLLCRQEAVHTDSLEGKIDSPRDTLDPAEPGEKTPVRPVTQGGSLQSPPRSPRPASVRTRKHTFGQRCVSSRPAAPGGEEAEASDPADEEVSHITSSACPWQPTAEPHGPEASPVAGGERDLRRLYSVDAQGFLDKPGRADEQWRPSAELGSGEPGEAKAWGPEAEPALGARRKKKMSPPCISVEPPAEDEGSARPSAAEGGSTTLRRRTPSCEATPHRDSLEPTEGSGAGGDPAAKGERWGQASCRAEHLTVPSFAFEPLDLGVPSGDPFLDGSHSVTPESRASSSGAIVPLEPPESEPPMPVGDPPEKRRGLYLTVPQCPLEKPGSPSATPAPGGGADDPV
Data set [3] has as its target T1, Voltage-dependent N-type calcium channel subunit alpha-1B. The experiment in a line: Inhibition of human Cav2.2 expressed in HEK293 cells by whole cell patch clamp electrophysiology method. The data set is classed as cell-based. For orientation: In patch-clamp work, channel activity is measured electrically.
A short description of data set [4]: Inhibition of human Cav3 expressed in HEK293 cells by whole cell patch clamp electrophysiology method. Format: cell-based.
Data set [5] in a line: Stability of the compound in Sprague-Dawley rat plasma assessed as half-life measured by RP-HPLC. The data set is classed as ADME, cell-free.

From ChEMBL document CHEMBL4725377, “The neuronal calcium ion channel activity of constrained analogues of MONIRO-1” (Bioorg Med Chem, 2020) come the findings set out here.

T1 sequence (Q00975 whole entry): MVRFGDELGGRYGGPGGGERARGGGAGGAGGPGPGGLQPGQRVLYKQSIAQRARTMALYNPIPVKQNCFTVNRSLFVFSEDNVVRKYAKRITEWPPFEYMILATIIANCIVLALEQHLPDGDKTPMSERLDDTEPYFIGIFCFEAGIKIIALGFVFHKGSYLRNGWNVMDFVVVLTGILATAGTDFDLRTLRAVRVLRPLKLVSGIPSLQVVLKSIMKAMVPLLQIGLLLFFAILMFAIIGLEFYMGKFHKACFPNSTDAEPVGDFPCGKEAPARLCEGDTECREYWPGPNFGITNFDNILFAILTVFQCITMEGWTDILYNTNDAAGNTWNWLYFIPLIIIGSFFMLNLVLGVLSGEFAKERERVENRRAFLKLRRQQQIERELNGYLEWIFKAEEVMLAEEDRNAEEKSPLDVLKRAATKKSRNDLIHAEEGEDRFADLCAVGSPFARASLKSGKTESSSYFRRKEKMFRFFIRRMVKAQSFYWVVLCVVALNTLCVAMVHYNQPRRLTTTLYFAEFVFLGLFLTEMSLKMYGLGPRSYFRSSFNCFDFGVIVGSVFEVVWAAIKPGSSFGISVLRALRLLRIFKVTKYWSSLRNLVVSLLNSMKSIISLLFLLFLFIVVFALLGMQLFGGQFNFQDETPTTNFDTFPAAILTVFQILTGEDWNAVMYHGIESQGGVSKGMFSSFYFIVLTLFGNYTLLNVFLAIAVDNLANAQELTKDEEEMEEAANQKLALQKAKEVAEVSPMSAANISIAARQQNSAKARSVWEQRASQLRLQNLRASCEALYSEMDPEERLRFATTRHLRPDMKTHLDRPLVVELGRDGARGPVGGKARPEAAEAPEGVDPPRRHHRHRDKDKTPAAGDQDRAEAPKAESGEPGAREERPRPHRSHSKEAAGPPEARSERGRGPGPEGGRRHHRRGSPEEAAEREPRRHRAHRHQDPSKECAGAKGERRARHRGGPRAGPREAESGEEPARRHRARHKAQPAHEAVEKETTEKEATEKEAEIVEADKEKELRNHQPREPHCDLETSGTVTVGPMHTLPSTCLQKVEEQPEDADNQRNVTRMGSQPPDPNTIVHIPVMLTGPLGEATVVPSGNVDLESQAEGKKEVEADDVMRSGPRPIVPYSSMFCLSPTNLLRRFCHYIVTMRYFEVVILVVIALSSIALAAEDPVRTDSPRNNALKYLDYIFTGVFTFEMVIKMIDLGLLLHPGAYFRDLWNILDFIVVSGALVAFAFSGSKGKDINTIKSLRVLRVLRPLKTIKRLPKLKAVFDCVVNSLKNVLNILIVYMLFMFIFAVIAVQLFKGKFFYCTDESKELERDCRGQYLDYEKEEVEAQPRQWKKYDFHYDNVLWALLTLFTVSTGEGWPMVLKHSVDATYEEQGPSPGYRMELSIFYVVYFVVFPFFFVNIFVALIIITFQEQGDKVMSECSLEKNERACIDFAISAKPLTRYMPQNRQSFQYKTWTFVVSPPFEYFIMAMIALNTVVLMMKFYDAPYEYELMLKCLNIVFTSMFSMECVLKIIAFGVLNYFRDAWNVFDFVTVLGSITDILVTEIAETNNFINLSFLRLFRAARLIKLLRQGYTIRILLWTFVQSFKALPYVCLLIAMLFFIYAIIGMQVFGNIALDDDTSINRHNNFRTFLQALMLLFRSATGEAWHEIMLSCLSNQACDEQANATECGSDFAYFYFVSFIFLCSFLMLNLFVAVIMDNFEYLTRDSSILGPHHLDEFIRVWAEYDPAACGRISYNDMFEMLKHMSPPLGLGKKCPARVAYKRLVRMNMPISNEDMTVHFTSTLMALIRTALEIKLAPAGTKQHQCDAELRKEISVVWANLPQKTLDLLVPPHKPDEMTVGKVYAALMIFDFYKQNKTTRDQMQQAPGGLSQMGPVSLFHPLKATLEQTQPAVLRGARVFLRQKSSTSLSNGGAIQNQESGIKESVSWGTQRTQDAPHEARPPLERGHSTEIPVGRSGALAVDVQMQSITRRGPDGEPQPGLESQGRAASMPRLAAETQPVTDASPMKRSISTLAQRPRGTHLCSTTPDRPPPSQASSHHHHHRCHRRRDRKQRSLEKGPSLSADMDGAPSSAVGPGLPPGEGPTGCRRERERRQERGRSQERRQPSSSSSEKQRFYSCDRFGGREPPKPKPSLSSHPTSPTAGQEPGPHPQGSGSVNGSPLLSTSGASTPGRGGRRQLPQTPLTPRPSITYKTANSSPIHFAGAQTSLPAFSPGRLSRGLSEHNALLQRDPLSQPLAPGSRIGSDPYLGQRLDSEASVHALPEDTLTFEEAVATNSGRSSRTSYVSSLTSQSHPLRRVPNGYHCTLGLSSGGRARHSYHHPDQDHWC

For `O=C(c1ccc(OCCCN2CCCC2)cc1)N1c2ccccc2CCc2ccccc21`, the IC50 in data set [1] is 98 µM; in data set [2] it was 110 µM.
Turning to `O=C(c1ccc(OCCCN2CCOCC2)cc1)N1c2ccccc2C=Cc2ccccc21`, the IC50 in data set [1] was 259 µM; in data set [2], 193 µM.
As for `NC(N)=NCCCOc1ccc(C(=O)Nc2ccccc2Oc2ccc(F)cc2)cc1`, the IC50 in data set [3] is 34 µM; in data set [1], 185 µM; in data set [4], 2 µM.
Consider `O=C(c1ccc(OCCCN2CCCC2)cc1)N1c2ccccc2Oc2ccccc21`, for which the IC50 in data set [2] was 49 µM.
As for `CN(C)CCCOc1ccc(C(=O)Nc2ccccc2Oc2ccccc2)cc1`, the values for the IC50 in data set [1] and in data set [2] were 49 µM and 19 µM, respectively.
As for `NC(N)=NCCCOc1ccc(C(=O)N2c3ccccc3Oc3ccccc32)cc1`, the IC50 in data set [2] came to 164 µM.
Same read-out and setting: next, `O=C(c1ccc(OCCCN2CCOCC2)cc1)N1c2ccccc2Oc2ccccc21`: 133 µM.
On to `O=C(c1ccc(OCCCN2CCOCC2)cc1)N1c2ccccc2CCc2ccccc21`, for which the IC50 was 78 µM in data set [1] and 80 µM in data set [2].
In the same order, the values of `O=C(c1ccc(OCCCN2CCCC2)cc1)N1c2ccccc2C=Cc2ccccc21` are 107 µM and 113 µM.
For the compound `CN(C)CCCOc1ccc(C(=O)N2c3ccccc3C=Cc3ccccc32)cc1`, the half-life in data set [5] was above 60 h.
For the compound `Cc1cccc(C)c1Oc1ccccc1NC(=O)c1ccc(OCCCN(C)C)cc1`, the figures for the IC50 in data set [1] and in data set [2] were 62 µM and 55 µM, respectively.
Turning to `COCCOC(=O)C1=C(C)NC(C)=C(C(=O)OC/C=C/c2ccccc2)C1c1cccc([N+](=O)[O-])c1` (configuration not stated) [CILNIDIPINE], the IC50 was 26 µM in data set [1] and 24 µM in data set [2].
For the compound `CN(C)CCCOc1ccc(C(=O)N2c3ccccc3CCc3ccccc32)cc1`, the half-life in data set [5] is above 60 h.

The term IC50 denotes the midpoint of a concentration-inhibition curve. Broadly, the half-life is how long it takes for the measured level to halve.
